Results published in paper PMC8951016, “Computational Design and Biological Evaluation of Analogs of Lupin Peptide P5 Endowed with Dual PCSK9/HMG-CoAR Inhibiting Activity” (Pharmaceutics, 2022).

Assays:
[1] = tested on: LDLR on HepG2 cell surface; test: In-cell western (ICW), LDLR on HepG2 surface in the presence of PCSK9; format: cell-based, human; conditions: 50 µM + PCSK9 4 µg/mL; Figure 3B
Method: For the experiments, a total of 3 × 10^4 HepG2 cells/well were seeded in 96-well plates and treated with 4.0 μg/mL PCSK9-WT and 4.0 μg/mL PCSK9 + peptides P5 and/or P5 analogs (50 µM) and vehicle (H2O) for 2 h at 37 °C under 5% CO2 atmosphere. Thus, cells underwent to ICW assay following conditions already optimized. See Supplementary Materials for detailed information. […]
cLex Co., Nagano, Japan). The peptides (P5, P5-Best, P-H6A, and P5-S7A) were synthe-sized by the company GeneScript (Piscataway, NJ, USA) at >95% purity. The antibody against HMG-CoAR was bought from Abcam (Cambridge, UK). […]
HMG-CoAR Aactivity Assay. […] Subsequently, the samples were mixed and the absorbance at 340 nm read by the microplate reader Synergy H1 (Winooski, VT, USA) at time 0 and 10 min. The HMG-CoAR-dependent oxidation of NADPH and the inhibition properties of peptides were measured by absorbance reduction, which is directly proportional to enzyme activ- […]
In Vitro PCSK9-LDLR Binding Assay. […] The reaction was stopped with 2.0 M sulfuric acid and the absorbance at 450nm was measured using the Synergy H1 fluorescent plate reader […]

[2] = tested on: LDLR; set-up: method as in 3 sources, ref 48 = [48]; doi:10.1111/jfbc.12757; 48. Lammi C. Zanoni C. Arnoldi A. Aiello G. […] (P3), a peptide from lupin protein, absorbed by Caco-2 cells, modulates cholesterol metabolism in HepG2 cells via SREBP-1 activation J. Food B ||| ref 22 = [22]; doi:10.1016/j.jff.2017.02.009; 22. Zanoni C. Aiello G. Arnoldi A. Lammi C. Investigations on the hypocholesterolaemic activity of […] and LTFPGSAED, two peptides from lupin β-conglutin: Focus on LDLR and PCSK9 pathways J. Fu ||| ref 24 = [24]; PMID 33808034; doi:10.3390/nu13030863; 24. Lammi C. Aiello G. Bollati C. Li J. Bartolomei M. Ranaldi G. Ferruzza S. Fassi E.M.A. Grazioso G. Sambuy Y. Trans-Epithelial Transport, Metabolism, and Biological Activity Assessment of the Multi-; conditions: through activation of SREBP-2; cited from earlier work
[3] = tested on: PCSK9; set-up: method as in 3 sources, ref 49 = [49]; PMID 35011066; doi:10.3390/nu14010193; 49. Macchi C. Greco M.F. Ferri N. Magni P. Arnoldi A. Corsini A. Sirtori C.R. Ruscica M. Lammi C. Impact of Soy β-Conglycinin Peptides on PCSK9 Protein Expression in HepG2 Cells Nutrients 2021 14 193 ||| ref 22 = [22]; doi:10.1016/j.jff.2017.02.009; 22. Zanoni C. Aiello G. Arnoldi A. Lammi C. Investigations on the hypocholesterolaemic activity of […] and LTFPGSAED, two peptides from lupin β-conglutin: Focus on LDLR and PCSK9 pathways J. Fu ||| ref 24 = [24]; PMID 33808034; doi:10.3390/nu13030863; 24. Lammi C. Aiello G. Bollati C. Li J. Bartolomei M. Ranaldi G. Ferruzza S. Fassi E.M.A. Grazioso G. Sambuy Y. Trans-Epithelial Transport, Metabolism, and Biological Activity Assessment of the Multi-; conditions: through downregulation of HNF-1α; cited from earlier work

Sequence: LILPKHSDAD [Peptide P5, natural peptide derived from a peptic lupin protein hydrolysate]
- LDLR level on cell surface in presence of PCSK9 [1]: restored
- LDLR protein level in HepG2 (P5, earlier work, words) [2]: increases the LDLR protein level
- PCSK9 protein levels and secretion (P5, earlier work, words) [3]: reduces the PCSK9 protein levels and its secretion
